BigSolDB 2.1

O=C(O)c1ccccc1O
solubility (mole fraction) (in ethanol, 278.15 K): 0.108 | solubility (mole fraction) (in ethanol, 283.15 K): 0.117 | solubility (mole fraction) (in ethanol, 288.15 K): 0.126 | solubility (mole fraction) (in ethanol, 293.15 K): 0.136 | solubility (mole fraction) (in ethanol, 298.15 K): 0.145 | solubility (mole fraction) (in ethanol, 303.15 K): 0.157 | solubility (mole fraction) (in ethanol, 308.15 K): 0.17 | solubility (mole fraction) (in ethanol, 313.15 K): 0.182 | solubility (mole fraction) (in ethanol, 318.15 K): 0.197 | solubility (mole fraction) (in n-butanol, 278.15 K): 0.106 | solubility (mole fraction) (in n-butanol, 283.15 K): 0.116 | solubility (mole fraction) (in n-butanol, 288.15 K): 0.126 | solubility (mole fraction) (in n-butanol, 293.15 K): 0.137 | solubility (mole fraction) (in n-butanol, 298.15 K): 0.148 | solubility (mole fraction) (in n-butanol, 303.15 K): 0.16 | solubility (mole fraction) (in n-butanol, 308.15 K): 0.174 | solubility (mole fraction) (in n-butanol, 313.15 K): 0.186 | solubility (mole fraction) (in n-butanol, 318.15 K): 0.201 | solubility (mole fraction) (in n-heptanol, 278.15 K): 0.117 | solubility (mole fraction) (in n-heptanol, 283.15 K): 0.128 | solubility (mole fraction) (in n-heptanol, 288.15 K): 0.138 | solubility (mole fraction) (in n-heptanol, 293.15 K): 0.148 | solubility (mole fraction) (in n-heptanol, 298.15 K): 0.16 | solubility (mole fraction) (in n-heptanol, 303.15 K): 0.171 | solubility (mole fraction) (in n-heptanol, 308.15 K): 0.185 | solubility (mole fraction) (in n-heptanol, 313.15 K): 0.197 | solubility (mole fraction) (in n-heptanol, 318.15 K): 0.21 | solubility (mole fraction) (in n-hexanol, 278.15 K): 0.116 | solubility (mole fraction) (in n-hexanol, 283.15 K): 0.127 | solubility (mole fraction) (in n-hexanol, 288.15 K): 0.137 | solubility (mole fraction) (in n-hexanol, 293.15 K): 0.146 | solubility (mole fraction) (in n-hexanol, 298.15 K): 0.158 | solubility (mole fraction) (in n-hexanol, 303.15 K): 0.169 | solubility (mole fraction) (in n-hexanol, 308.15 K): 0.182 | solubility (mole fraction) (in n-hexanol, 313.15 K): 0.195 | solubility (mole fraction) (in n-hexanol, 318.15 K): 0.209 | solubility (mole fraction) (in n-pentanol, 278.15 K): 0.113 | solubility (mole fraction) (in n-pentanol, 283.15 K): 0.123 | solubility (mole fraction) (in n-pentanol, 288.15 K): 0.132 | solubility (mole fraction) (in n-pentanol, 293.15 K): 0.144 | solubility (mole fraction) (in n-pentanol, 298.15 K): 0.155 | solubility (mole fraction) (in n-pentanol, 303.15 K): 0.166 | solubility (mole fraction) (in n-pentanol, 308.15 K): 0.18 | solubility (mole fraction) (in n-pentanol, 313.15 K): 0.192 | solubility (mole fraction) (in n-pentanol, 318.15 K): 0.206 | solubility (mole fraction) (in n-propanol, 278.15 K): 0.102 | solubility (mole fraction) (in n-propanol, 283.15 K): 0.111 | solubility (mole fraction) (in n-propanol, 288.15 K): 0.12 | solubility (mole fraction) (in n-propanol, 293.15 K): 0.131 | solubility (mole fraction) (in n-propanol, 298.15 K): 0.143 | solubility (mole fraction) (in n-propanol, 303.15 K): 0.154 | solubility (mole fraction) (in n-propanol, 308.15 K): 0.168 | solubility (mole fraction) (in n-propanol, 313.15 K): 0.181 | solubility (mole fraction) (in n-propanol, 318.15 K): 0.196
